Experimental findings from patent publication US10702575B2, “Pharmaceutical composition for preventing or treating mycobacterium species infection and method using the same” (Seoul National University R&DB Foundation, priority 2017, dated 2020) are described below.

Values after ≈ are worked out from the molar mass of the structure shown. *1 amine or outer side, *2 acyl side, *3 side chain or, on linkers, in order; H or OH if unused. Where a SMILES comes first, the peptide text is derived from it. Bridges are numbered along the chain shown (N, C = ends). [ ]: non-standard residue; d: D form. The star is where a group is joined. ξ: configuration not given here. NMeTrp(4-OMe) = CN[CH](Cc1c[nH]c2cccc(OC)c12)C(=O)O; X1 = O=C(C(N[*:1])C(O)c1ccccc1)[*:2]; ξNMe2Val = CC(C)C(C(=O)*)N(C)C; NMeT = CN[CH](C(=O)O)[CH](C)O; NMeL = CN[CH](CC(C)C)C(=O)O; NMeV = CN[CH](C(=O)O)C(C)C

In assay [1] the test system is LC3. Briefly: LC3 immunoblotting of macrophage cytolysate. Type of assay: cell-based, mouse. Particulars: for amount of LC3-II after pre-treatment, compared with treatment with OMS-A or OMS-B (FIG. 7B): pre-treatment with 10 μM 3-MA or 100 nM Baf-A before OMS-A or OMS-B; for amount of LC3-II (FIG. 7A): 1 μM, 5 μM, 10 μM, about 24 hours, macrophage. The protocol: The obtained cytolysate was subjected to immunoblotting using anti-LC3 antibody (available from Cell Signaling) and anti-β-actin antibody (available from Santa Cruz). The results thereof are shown in FIG. 7A (“U” represents “untreated”). Further, in the case of pre-treatment of a macrophage with 10 μM of 3-methyladenine (3-MA), which is an autophagy inhibitor, or 100 nM of Bafilomycin A1 (Baf-A), which is an H^+-ATPase inhibitor, the immunoblot images of the macrophage are shown in FIG. 7B (“U” represents “untreated”, and “SC” represents “solvent control”).

Assay [2] relates to M. marinum. Briefly: Mycobacterium marinum-Drosophila melanogaster infection system. The assay is classed as in vivo. The following applies: for viability of Drosophila melanogaster infected with M. marinum (FIG. 5A): OMS-A 1 μM or 10 μM, AMK 1 μg/ml in culture medium, about 30 days.
The subject of assay [3] is Mtb H37Rv strain. Type of assay: cell-based, Mycobacterium tuberculosis. Particulars: REMA; for anti-Mycobacterium tuberculosis activity as compared with INH, EMB, and SQ109 (FIG. 2): RFU vs concentration.
Assay [4] has as its system Bone-marrow-derived macrophages (BMDM). Briefly: LC3 puncta formation assay in macrophage. The assay is classed as cell-based, mouse. Particulars: 10 μM, about 24 hours. On the procedure:
LC3 puncta formation and lipidation assay (Eisuke and Noboru, Autophagy, 2010, vol. 6, p. 764-776), which is mainly used in macrophage autophagy measurement, was performed. 10 μM of OMS-A or 10 μM of OMS-B was added to BMDM prepared in Section 4, and then cultured for about 24 hours. As a negative control, PBS was used. Subsequently, macrophage was stained with 4′,6-diamidino-2-phenylindole (DAPI, available from Sigma) and anti-LC3 antibody (available from Cell Signaling), and the number of LC3 puncta per macrophage was measured. The images of the stained macrophages are shown in FIG. 6A (“UN” represents “untreated”), and the number of LC3 puncta per macrophage are shown in FIG. 6B (**: p<0.01).

The subject of assay [5] is LC3B. The experiment in a line: flow cytometry of macrophage with anti-LC3B antibody. The assay is classed as cell-based, mouse. Particulars: 10 μM, about 24 hours. The protocol:
Subsequently, a mean fluorescence intensity (MFI) of the macrophage was measured using the anti-LC3B antibody (available from Cell Signaling) according to flow cytometry.
Background: In flow cytometry, cells or beads pass a laser one at a time.

For assay [6], the system named is Mtb phagosome. Briefly: co-localization of Mtb phagosome with LC3 or LAMP2 in macrophage. The assay is classed as cell-based, mouse. The following applies: 10 μM, about 24 hours, ERFP-Mtb macrophage.
Assay [7] deals with AMP-activated protein kinase (AMPK) cell signaling pathway. The assay is classed as cell-based, mouse.
The test system of assay [8] is NF-κB. Type of assay: cell-based, mouse. Particulars: 1 μM, 5 μM, 10 μM, about 6 hours.
Assay [9] has as its system macrophage. Briefly: mCherry-EGFP-LC3B autophagic flux in transfected macrophage. Particulars: 10 μM, about 24 hours.
Text: Further, a macrophage was transfected with a retrovirus vector that expresses mCherry-enhanced green fluorescent protein (EGFP)-LC3B. […] Fluorescent images of the transfected macrophage were obtained, which are shown in FIG. 9 (“UN” represented “untreated”, and “N” represents “nucleus”).

For `Cn1cnc(N)c2ncnc1-2` [3-MA, 3-methyladenine, reference compound], in assay [1], the “amount of LC3-II after pre-treatment, compared with treatment with OMS-A or OMS-B (FIG. 7B)” value is recorded as “decreased”.

`NCC[C@H](O)C(=O)N[C@@H]1C[C@H](N)[C@@H](O[C@H]2O[C@H](CN)[C@@H](O)[C@H](O)[C@H]2O)[C@H](O)[C@H]1O[C@H]1O[C@H](CO)[C@@H](O)[C@H](N)[C@H]1O` [AMK, amikacin, reference compound]: the “viability of Drosophila melanogaster infected with M. marinum (FIG. 5A)” value in assay [2] is given as “increased viability”.

`CO/C1=C\C(C)=C\[C@@H](C)[C@@H](O)[C@@H](C)C/C(C)=C/C=C/[C@H](OC)[C@@H]([C@@H](C)[C@@H](O)[C@H](C)[C@@]2(O)C[C@@H](O)[C@H](C)[C@@H](C(C)C)O2)OC1=O` [Baf-A, Bafilomycin A1, reference compound]: the “amount of LC3-II after pre-treatment, compared with treatment with OMS-A or OMS-B (FIG. 7B)” value in assay [1] was “increased”.

On to `CNC(C(=O)NC(C(=O)NC1C(=O)N(C)C(C(C)O)C(=O)NC(C(C)C)C(=O)N(C)C(CC(C)C)C(=O)NC(C(C)C)C(=O)N(C)C(C(C)C)C(=O)N(C)C(Cc2c[nH]c3cccc(OC)c23)C(=O)NC(C(C)C)C(=O)NC(C(O)c2ccccc2)C(=O)NC(C(C)C)C(=O)OC1C)C(C)C)C(C)C` (stereo not drawn) [OMS-A, Ohmyungsamycin A] (H-[NMeV]VT[NMeT]V[NMeL]V[NMeV][NMeTrp(4-OMe)]V[X1]V; ester 3-C; configuration not given here), for which, in [3], the “MIC50 (bacterial growth 50% MIC)” value stood at 57 nM (≈ 0.0832 µg/mL); the “anti-Mycobacterium tuberculosis activity as compared with INH, EMB, and SQ109 (FIG. 2)” value is reported as “excellent anti-Mycobacterium tuberculosis activity”. Also, the “CFUs of M. marinum present in Drosophila melanogaster (FIG. 5B)” value in assay [2] (1 μM or 10 μM OMS-A, compared with negative control (SC)) was “decreased in a concentration-dependent manner”. Besides, the “viability of Drosophila melanogaster infected with M. marinum (FIG. 5A)” value in assay [2] is listed as “increased viability”. Also, the “LC3 puncta formation per macrophage (FIGS. 6A, 6B)” value in [4] is “great”. Besides, in assay [1], the “amount of LC3-II (FIG. 7A)” value was “increased as compared with LC3-I”. The “LC3B expression, mean fluorescence intensity (FIG. 8)” value in assay [5] is on record as “increased level”. Besides, in [6], the “co-localization of LAMP2 and Mtb phagosome (FIGS. 10C, 10D)” value was “increased”; the “co-localization of LC3 and Mtb phagosome (FIGS. 10A, 10B)” value is “increased”. Also, in [7], the “phoshorylation in Ser78 (S79) of ACC (FIGS. 11A, 11B)” value was “induced” and the “phoshorylation in Thr172 of AMPKα (FIGS. 11A, 11B)” value is reported as “induced”. Also, in assay [8], the “NF-κB luciferase activity (FIG. 12B)” value is given as “decreases in a concentration-dependent manner”. The “number of red puncta, mCherry-EGFP-LC3B (FIG. 9)” value in [9] was “increased”.

On to `COc1cccc2[nH]cc(CC3C(=O)NC(C(C)C)C(=O)NC(C(O)c4ccccc4)C(=O)NC(C(C)C)C(=O)OC(C)C(NC(=O)C(NC(=O)C(C(C)C)N(C)C)C(C)C)C(=O)N(C)C(C(C)O)C(=O)NC(C(C)C)C(=O)N(C)C(CC(C)C)C(=O)NC(C(C)C)C(=O)N(C)C(C(C)C)C(=O)N3C)c12` (stereo not drawn) [OMS-B, Ohmyungsamycin B] (ξNMe2Val-VT[NMeT]V[NMeL]V[NMeV][NMeTrp(4-OMe)]V[X1]V; ester 2-C; configuration not given here), for which, in [3], the “MIC50 (bacterial growth 50% MIC)” value is 117 nM (≈ 0.172 µg/mL); the “anti-Mycobacterium tuberculosis activity as compared with INH, EMB, and SQ109 (FIG. 2)” value was “excellent anti-Mycobacterium tuberculosis activity”. Moreover, the “LC3 puncta formation per macrophage (FIGS. 6A, 6B)” value in assay [4] is recorded as “great”. Further, in [1], the “amount of LC3-II (FIG. 7A)” value is on record as “increased as compared with LC3-I”. Also, the “LC3B expression, mean fluorescence intensity (FIG. 8)” value in assay [5] is “increased level”. In addition, in assay [6], the “co-localization of LAMP2 and Mtb phagosome (FIGS. 10C, 10D)” value is reported as “increased”; the “co-localization of LC3 and Mtb phagosome (FIGS. 10A, 10B)” value was “increased”. In addition, in [7], the “phoshorylation in Ser78 (S79) of ACC (FIGS. 11A, 11B)” value is “induced” and the “phoshorylation in Thr172 of AMPKα (FIGS. 11A, 11B)” value is listed as “induced”. For the same compound, the “NF-κB luciferase activity (FIG. 12B)” value in assay [8] is listed as “decreases in a concentration-dependent manner”. The “number of red puncta, mCherry-EGFP-LC3B (FIG. 9)” value in assay [9] is recorded as “increased”.
